From PMC3236098 (Bioorganic & medicinal chemistry, 2011)

Columns and labels:
hTAAR1 = target: T1, hTAAR1 (Homo sapiens, UniProt Q96RJ0); assay type: cell-based
T1 sequence (Q96RJ0 1-339): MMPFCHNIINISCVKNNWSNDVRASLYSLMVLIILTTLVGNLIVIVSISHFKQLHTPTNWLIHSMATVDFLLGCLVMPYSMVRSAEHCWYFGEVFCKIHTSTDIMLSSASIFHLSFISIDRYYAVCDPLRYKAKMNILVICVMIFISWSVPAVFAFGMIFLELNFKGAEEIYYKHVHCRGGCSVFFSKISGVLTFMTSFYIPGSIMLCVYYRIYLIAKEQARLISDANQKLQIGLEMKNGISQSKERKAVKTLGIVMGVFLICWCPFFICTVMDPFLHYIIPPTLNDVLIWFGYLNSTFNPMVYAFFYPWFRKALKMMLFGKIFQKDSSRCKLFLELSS

[1] = cited from earlier work; for excitation in humans: doses of 100 mg (or greater)
mTAAR1 = details: read-out: EC50 Mouse TAAR1; cited from earlier work
rTAAR1 = details: read-out: EC50 Rat TAAR1; cited from earlier work
DAT = details: read-out: EC50 in rat synaptosomes; reference not given; cited from earlier work

C[C@H](N)Cc1cccc(C(F)(F)F)c1 [(S)-6, (S)-norfenfluramine]
EC50 Human, potency to activate TAAR1 (hTAAR1): active ^*

C[C@H](N)Cc1ccc2c(c1)OCO2 [(S)-3, (S)-3,4-methylenedioxyamphetamine]
excitation in humans [1]: excitation

CN[C@@H](C)Cc1ccc2c(c1)OCO2 [(S)-4, (S)-3,4-methylenedioxymethamphetamine]
excitation in humans [1]: excitation

COc1cc(C[C@H](C)N)c(OC)cc1C [(S)-8, (S)-4-methyl-2,5-dimethoxyamphetamine]
agonist activity at hTAAR1 (in words) (hTAAR1): lack of observed agonist activity

C[C@@H](N)Cc1ccccc1 [(R)-1, (R)-amphetamine]
EC50 (mTAAR1): 0.065 ± 0.053 µM | EC50 (rTAAR1): 1.4 ± 0.6 µM

COc1cc(C[C@H](C)N)c(OC)cc1Br [(S)-7, (S)-4-bromo-2,5-dimethoxyamphetamine]
effect in humans ([1]; doses of 0.5–1.0 mg): no effect

C[C@H](N)Cc1ccccc1 [(S)-1, (S)-amphetamine]
EC50 (mTAAR1): 0.002 ± 0.001 µM | EC50 (rTAAR1): 1.2 ± 0.07 µM | EC50 (DAT): […]
